Earlier results as cited in patent US20090099557A1, “Methods and compositions for optimizing the outcomes of refractive laser surgery of the cornea” (priority 2006, published 2009).

Assays:
epithelial cells [1] = settings: 18% ethanol for 25 seconds; single cell layers of epithelial cells, in vitro
epithelial cells [2] = settings: ethanol-assisted epithelial separation; Invest Opthalmol Vis Sci 43: 2593-2602 (2002); J Cataract Refract Surg 28: 1841-46 (2002)

CCO [ethanol]
toxic effect of the alcohol on epithelial cells (epithelial cells [1]): toxic effect
toxicity to epithelial cells (epithelial cells [2]): toxic to epithelial cells in both a dose- and time-dependent manner
